Measured values as given in article PMC6504641 (Chembiochem : a European journal of chemical biology, 2018).

Molecular target: BRAF (Homo sapiens, UniProt P15056)
Experiment: ELISA kinase assay, phospho-MEK1 readout
Assay type: biochemical

Sequence of BRAF (P15056 whole entry): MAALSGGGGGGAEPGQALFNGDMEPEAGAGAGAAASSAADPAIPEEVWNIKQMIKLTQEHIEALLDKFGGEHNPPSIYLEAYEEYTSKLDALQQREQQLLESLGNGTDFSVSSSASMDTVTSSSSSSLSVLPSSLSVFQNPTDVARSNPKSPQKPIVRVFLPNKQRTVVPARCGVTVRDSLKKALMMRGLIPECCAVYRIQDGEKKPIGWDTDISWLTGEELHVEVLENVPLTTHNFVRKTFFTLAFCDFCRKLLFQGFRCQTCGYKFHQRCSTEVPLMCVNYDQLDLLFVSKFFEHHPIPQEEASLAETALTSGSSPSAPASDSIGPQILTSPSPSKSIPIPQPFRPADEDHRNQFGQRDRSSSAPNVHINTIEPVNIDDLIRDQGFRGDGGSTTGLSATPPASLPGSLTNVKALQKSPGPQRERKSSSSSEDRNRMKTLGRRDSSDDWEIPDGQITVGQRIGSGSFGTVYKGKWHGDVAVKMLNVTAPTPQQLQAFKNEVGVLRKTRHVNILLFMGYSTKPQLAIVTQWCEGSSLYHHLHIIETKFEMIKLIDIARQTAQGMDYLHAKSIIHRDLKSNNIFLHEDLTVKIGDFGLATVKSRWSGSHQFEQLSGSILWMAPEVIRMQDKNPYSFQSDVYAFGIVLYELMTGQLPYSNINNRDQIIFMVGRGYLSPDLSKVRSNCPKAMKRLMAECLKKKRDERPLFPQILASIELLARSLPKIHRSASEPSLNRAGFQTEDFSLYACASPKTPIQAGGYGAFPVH

IC50: 0.7 nM
Structure (SMILES): N#Cc1c(Oc2ccc(F)c(NC(=O)Cc3cccc(C(F)(F)F)c3)c2)ccc2nc(NC(=O)C3CC3)sc12 [TAK-632]
